We go through four sequences from patent publication US8258114B2, “Modulation of glucose-6-phosphatase translocase expression” (Isis Pharmaceuticals, Inc., priority 2004, dated 2012).

Common to all, as to assay type: in vivo, mouse
In data set [1] the test system is ob/ob mice. The experiment in a line: Fed and fasted plasma glucose in ob/ob mice. Particulars: 25 mg/kg s.c. twice weekly; for fasted plasma glucose: week 3, overnight fast, saline 297. Here is the method: Seven-week old male C57B1/6J-Lep ob/ob mice (Jackson Laboratory, Bar Harbor, Me.) were fed a diet with a fat content of about 22% and were subcutaneously injected with oligonucleotides at a dose of 25 mg/kg two times per week. A total of eight doses were administered. Glucose-6-phosphatase translocase antisense oligonucleotides used were ISIS 148985 (SEQ ID NO: 118) and ISIS 149008 (SEQ ID NO: 141). ISIS 116847 ([…]; incorporated herein as SEQ ID NO: 143), targeted to mouse PTEN, was used as a positive control. Saline-injected animals served as negative controls. Animals were sacrificed 48 hours after the last dose of oligonucleotide was administered, and liver triglycerides, liver glycogen, and target reduction in liver were measured.
The effects of target inhibition on glucose metabolism were evaluated in the ob/ob mice treated as described above. Routine clinical analyzer instruments (Olympus Clinical Analyzer, Melville, N.Y.) were used to measure plasma glucose. Plasma glucose was measured prior to antisense oligonucleotide treatment (week 0) and during the second and fourth week of treatment. Fasted glucose measurements were made during week 3 after an overnight (about 14 hours) fast. Data are presented as the average from seven animals per treatment group.

For data set [2], the system named is db/db mice. The data set is described as follows: Fed plasma glucose in db/db mice, dose-response study (Example 11). Here is the method:
(§1) Seven-week old male C57B1/6J-Lepr db/db mice (Jackson Laboratory, Bar Harbor, Me.) were fed a diet with a fat content of about 14% (Formulab Diet 5008) and were subcutaneously injected with ISIS 116847 (SEQ ID NO: 143), ISIS 141923 (SEQ ID NO: 144), or ISIS 148985 (SEQ ID NO: 118), an antisense inhibitor of glucose-6-phosphatase translocase, […] […] Saline-injected animals served as controls. 48 hours after the eighth and final dose was administered, mice were sacrificed and target levels were evaluated in liver. RNA isolation and target mRNA expression level quantitation were performed as described by other examples herein.
For seven animals per treatment group, plasma glucose was measured with routine clinical analyzer instruments (e.g. Olympus Clinical Analyzer). Data are expressed as averages per treatment group.

Data set [3] can be described thus: Plasma triglycerides, cholesterol, free fatty acids, transaminases and lactate in db/db mice (Table 7). Here is the method: Seven-week old male C57B1/6J-Lepr db/db mice (Jackson Laboratory, Bar Harbor, Me.) were fed a diet with a fat content of about 14% (Formulab Diet 5008) and were subcutaneously injected with ISIS 116847 (SEQ ID NO: 143), ISIS 141923 (SEQ ID NO: 144), or ISIS 148985 (SEQ ID NO: 118), an antisense inhibitor of glucose-6-phosphatase translocase, […] weeks. […] Saline-injected animals served as controls. 48 hours after the eighth and final dose was administered, mice were sacrificed and target levels were evaluated in liver. RNA isolation and target mRNA expression level quantitation were performed as described by other examples herein.
To further assess the physiological effects resulting from inhibition of target mRNA, the db/db mice were evaluated at the end of the treatment period for plasma triglycerides, plasma cholesterol, free fatty acids (FFA), lactate and plasma transaminase levels. The transaminases ALT and AST are indicators of liver function. Plasma triglycerides, cholesterol, free fatty acids, and transaminases were measured by routine clinical analyzer instruments (e.g. Olympus Clinical Analyzer, Melville, N.Y.). Results are presented in table 7 as the averages from seven animals per treatment group.

A short description of data set [4]: Plasma neutrophils and lymphocytes in db/db mice (Table 9). Here is the method:
as §1
Because mutations in the glucose-6-phosphatase translocase gene responsible for human glycogen storage disease type 1b result in neutropenia, plasma neutrophils and lymphocytes were measured for animals in each treatment group.

Data set [5] deals with glucose-6-phosphatase translocase mRNA. The data set is described as follows: Target mRNA reduction in liver of db/db mice (Example 10). Particulars: 25 mg/kg s.c. twice weekly, end of study. Here is the method: Seven-week old male C57B1/6J-Lepr db/db mice (Jackson Laboratory, Bar Harbor, Me.) were fed a diet with a fat content of about 14% and were subcutaneously injected with one or more of the oligomeric compounds of the invention or a control compound at a dose of 25 mg/kg two times per week. Glucose-6-phosphatase translocase antisense oligonucleotides used were ISIS 148985 (SEQ ID NO: 118) and ISIS 149008 (SEQ ID NO: 141). ISIS 116847 (SEQ ID NO: 143), targeted to mouse PTEN, was used as a positive control. The scrambled control oligonucleotide ISIS 141923 ([…], incorporated herein as SEQ ID NO: 144) served as a negative control along with saline-injected animals. ISIS 141923 and ISIS 116847 are chimeric oligonucleotides (“gapmers”) 20 nucleotides in length, composed of a central “gap” region consisting of 10 2′-deoxynucleotides, which is flanked on both sides (5′ and 3′) by five-nucleotide “wings”. The wings are composed of 2′-O-(2-methoxyethyl) nucleotides, also known as 2′-MOE nucleotides. The internucleoside (backbone) linkages are phosphorothioate throughout the oligonucleotide. All cytidine residues are 5-methylcytidines.
48 hours after the final treatment, mice were sacrificed and target levels were evaluated in liver. RNA isolation and target mRNA expression level quantitation were performed as described by other examples herein.
Glucose-6-phosphatase translocase mRNA levels in db/db mouse livers were measured at the end of study using RIBOGREEN™ RNA quantification reagent (Molecular Probes, Inc. Eugene, Oreg.) as taught in previous examples above. Unless otherwise noted, data are expressed as the average percent inhibition from 5 animals per treatment group.

The mark [6] stands for this setting: week 0 (prior to treatment), saline 339.
Where [7] appears, read: 25 mg/kg twice weekly, week 0, saline 280.
[8] abbreviates: 25 mg/kg twice weekly, week 2, saline 517.
Where [9] appears, read: 25 mg/kg twice weekly, week 4, saline 510.
[10] abbreviates: 25 mg/kg twice weekly 4 weeks (25 mg/mL [sic]), saline 0.8.
Setting [11] is: 25 mg/kg twice weekly 4 weeks (25 mg/mL [sic]), saline 56.
[12] abbreviates: 25 mg/kg twice weekly 4 weeks (25 mg/mL [sic]), saline 59.
Setting [13] is: 25 mg/kg twice weekly 4 weeks (25 mg/mL [sic]), saline 108.
[14] abbreviates: 25 mg/kg twice weekly 4 weeks (25 mg/mL [sic]), saline 152.
Setting [15] is: 25 mg/kg twice weekly 4 weeks (25 mg/mL [sic]), saline 213.
The mark [16] stands for this setting: 25 mg/kg twice weekly 4 weeks (25 mg/mL [sic]), saline 0.9.
[17] abbreviates: 25 mg/kg twice weekly 4 weeks (25 mg/mL [sic]), saline 2.7.
Setting [18] is: dose 12.5 mg/mL [sic], twice weekly 4 weeks.
Setting [19] is: dose printed 6 mg/mL, twice weekly 4 weeks.

Turning to “GCTCCATAGCGAGGACTCGA (chemistry not given here) [ISIS 148985]”, the fed plasma glucose entry is listed as “approximately 348 mg/dL” in data set [1] (setting [6]); approximately 315 mg/dL in data set [1] (week 2, saline 401); approximately 241 mg/dL in data set [1] (week 4, saline 372); “approximately 289 mg/dL” in data set [2] (setting [7]); approximately 394 mg/dL in data set [2] (setting [8]); approximately 443 mg/dL in data set [2] (setting [9]). Further, the fasted plasma glucose entry in data set [1] is recorded as “approximately 293 mg/dL”. For the same sequence, the “Free Fatty Acids” value in data set [3] (setting [10]) is given as 1.1 mEq/L. In addition, the ALT in data set [3] (setting [11]) is reported as 73 IU/L. The sequence further yielded an AST in data set [3] (setting [12]) of 48 IU/L. The sequence also displayed a Lactate in data set [3] (setting [13]) of 105 mg/dL. Besides, in data set [3] (setting [14]), the Cholesterol is on record as 164 mg/dL. Moreover, the “Plasma Triglycerides” value in data set [3] (setting [15]) is given as 202 mg/dL. In addition, the “Neutrophils Plasma” value in data set [4] (setting [16]) was found to be 1.0 cells/nL. Moreover, the “Lymphocytes Plasma” value in data set [4] (setting [17]) is listed as 3.3 cells/nL. Further, the “Glucose-6-phosphatase translocase mRNA levels in liver, reduction compared to saline” value in data set [5] is “approximately 19%”.
Turning to “CTGCTAGCCTCTGGATTTGA (chemistry not given here) [ISIS 116847, positive control oligonucleotide targeted to mouse PTEN, reference compound]”, the fed plasma glucose entry in data set [1] (setting [6]) was “approximately 339 mg/dL”; in data set [1] (week 2, saline 401), approximately 230 mg/dL; in data set [1] (week 4, saline 372), approximately 188 mg/dL; in data set [2] (setting [7]), “approximately 282 mg/dL”; in data set [2] (setting [8]) it was approximately 291 mg/dL; in data set [2] (setting [9]), approximately 224 mg/dL. Besides, the fasted plasma glucose entry in data set [1] is given as “approximately 286 mg/dL”. Besides, the “Free Fatty Acids” value in data set [3] (setting [10]) was 0.8 mEq/L. Besides, in data set [3] (setting [11]), the ALT amounted to 70 IU/L. Besides, the AST in data set [3] (setting [12]) is listed as 62 IU/L. Besides, in data set [3] (setting [13]), the Lactate is reported as 131 mg/dL. Besides, the Cholesterol in data set [3] (setting [14]) is listed as 161 mg/dL. The “Plasma Triglycerides” value in data set [3] (setting [15]) stood at 166 mg/dL. In addition, in data set [4] (setting [16]), the “Neutrophils Plasma” value is given as 0.8 cells/nL. The “Lymphocytes Plasma” value in data set [4] (setting [17]) turned out to be 3.1 cells/nL. Besides, in data set [5], the “Glucose-6-phosphatase translocase mRNA levels in liver, reduction compared to saline” value was “about 8%”.
“CCTTCCCTGAAGGTTCCTCC (chemistry not given here) [ISIS 141923, scrambled control oligonucleotide, negative control, reference compound]”: the figures for the fed plasma glucose entry in data set [2] (setting [7]), in data set [2] (setting [8]) and in data set [2] (setting [9]) were “approximately 287 mg/dL”, approximately 456 mg/dL and approximately 510 mg/dL, respectively. For the same sequence, the “Free Fatty Acids” value in data set [3] (setting [10]) was 0.9 mEq/L. Besides, in data set [3] (setting [11]), the ALT worked out at 72 IU/L. The same sequence registered an AST in data set [3] (setting [12]) of 56 IU/L. Further, the Lactate in data set [3] (setting [13]) stood at 128 mg/dL. For the same sequence, the Cholesterol in data set [3] (setting [14]) was found to be 167 mg/dL. Moreover, the “Plasma Triglycerides” value in data set [3] (setting [15]) was determined as 166 mg/dL. The “Neutrophils Plasma” value in data set [4] (setting [16]) amounted to 0.9 cells/nL. Besides, the “Lymphocytes Plasma” value in data set [4] (setting [17]) amounted to 2.6 cells/nL. Further, the “Glucose-6-phosphatase translocase mRNA levels in liver, reduction compared to saline” value in data set [5] is “about 4%”.
Turning to “TATACAAGTCGGTTTGCCCT (chemistry not given here) [ISIS 149008]”, the fed plasma glucose entry was “approximately 344 mg/dL” in data set [1] (setting [6]); approximately 249 mg/dL in data set [1] (week 2, saline 401); approximately 153 mg/dL in data set [1] (week 4, saline 372); “approximately 289 mg/dL” in data set [2] (6.25 mg/kg twice weekly, week 0); approximately 397 mg/dL in data set [2] (6.25 mg/kg twice weekly, week 2); approximately 478 mg/dL in data set [2] (6.25 mg/kg twice weekly, week 4). Further, the fed plasma glucose entry is recorded as “approximately 283 mg/dL” in data set [2] (12.5 mg/kg twice weekly, week 0); approximately 411 mg/dL in data set [2] (12.5 mg/kg twice weekly, week 2); approximately 203 mg/dL in data set [2] (12.5 mg/kg twice weekly, week 4); “approximately 286 mg/dL” in data set [2] (setting [7]); approximately 359 mg/dL in data set [2] (setting [8]); approximately 299 mg/dL in data set [2] (setting [9]). The fasted plasma glucose entry in data set [1] is “approximately 237 mg/dL”. The “Free Fatty Acids” value in data set [3] (setting [10]) is 0.9 mEq/L; in data set [3] (setting [18]), 1.0 mEq/L; in data set [3] (setting [19]), 0.9 mEq/L. Besides, the values for the ALT in data set [3] (setting [11]), in data set [3] (setting [18]) and in data set [3] (setting [19]) were 68 IU/L, 64 IU/L and 59 IU/L, respectively. For the same sequence, the AST in data set [3] (setting [12]) was 55 IU/L; in data set [3] (setting [18]), 56 IU/L; in data set [3] (setting [19]), 49 IU/L. The figures for the Lactate in data set [3] (setting [13]), in data set [3] (setting [18]) and in data set [3] (setting [19]) were 129 mg/dL, 127 mg/dL and 125 mg/dL, respectively. Moreover, the figures for the Cholesterol in data set [3] (setting [14]), in data set [3] (setting [18]) and in data set [3] (setting [19]) were 167 mg/dL, 172 mg/dL and 158 mg/dL, respectively. The “Plasma Triglycerides” value in data set [3] (setting [15]) is recorded as 197 mg/dL; in data set [3] (setting [18]), 247 mg/dL; in data set [3] (setting [19]), 205 mg/dL. Besides, the “Neutrophils Plasma” value was 1.0 cells/nL in data set [4] (setting [16]), 0.9 cells/nL in data set [4] (dose 12.5 mg/mL [sic]) and 1.1 cells/nL in data set [4] (dose printed 6 mg/mL). In addition, the “Lymphocytes Plasma” value in data set [4] (setting [17]) is recorded as 3.7 cells/nL; in data set [4] (dose 12.5 mg/mL [sic]) it was 3.2 cells/nL; in data set [4] (dose printed 6 mg/mL) it was 2.8 cells/nL. For the same sequence, the “Glucose-6-phosphatase translocase mRNA levels in liver, reduction compared to saline” value in data set [5] was “approximately 82%”.
